Test results taken from ChEMBL document CHEMBL1201862, “PubChem BioAssay data set” (2004).
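Step 1: Grow cells in 96-well plates. Step 2: Expose to compound for 48 hours at 5 concentrations. Step 3: Interpolate endpoints linearly; if unreached, use highest concentration. At the GI50, growth is halved.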 Activity calls are given as the source filed them. Cut-off read from the data, not from the text of the source: active = GI50 up to about 1.1 µM and inactive = higher.

Key:
Assay in all cases: growth of human tumour cells (NCI), 48 h
[1] = system: HOP-62
[2] = system: CAKI-1
[3] = system: SNB-19
[4] = system: 786-0
[5] = system: OVCAR-5
[6] = system: PC-3
[7] = system: RXF 393
[8] = system: MCF7
[9] = system: OVCAR-4
[10] = system: SF-295
[11] = system: UACC-257
[12] = system: ACHN
[13] = system: U-251
[14] = system: SF-539
[15] = system: OVCAR-8
[16] = system: NCI-H23
[17] = system: EKVX
[18] = system: IGROV-1

Measured: GI50

N#Cc1c(-c2ccc(Cl)cc2)c(C#N)c(=O)n(NS(=O)(=O)c2ccccc2)c1-c1ccccc1
inactive: [1] > 25 µM | [2] > 25 µM | [3] > 25 µM | [4] > 25 µM | [5] > 25 µM | [6] > 25 µM | [7] > 25 µM | [8] 19.8 µM | [9] > 25 µM | [10] > 25 µM | [11] > 25 µM | [12] > 25 µM | [13] > 25 µM | [14] > 25 µM

CC1(c2cccc3c2C2(O)C=CC4(CCC32)OCCO4)OCCO1 (stereo not given)
inactive: [15] > 100 µM | [1] > 100 µM | [2] > 100 µM | [3] > 100 µM | [16] > 100 µM | [4] > 100 µM | [5] > 100 µM | [7] > 100 µM | [9] > 100 µM | [17] > 100 µM | [10] > 100 µM | [11] > 100 µM | [12] > 100 µM | [13] > 100 µM | [14] > 100 µM | [18] > 100 µM

CCOC(=O)c1cc(=O)n(C)c(=O)n1C
inactive: [15] > 100 µM | [1] > 100 µM | [2] > 100 µM | [3] > 100 µM | [16] > 100 µM | [4] > 100 µM | [5] > 100 µM | [7] > 100 µM | [9] > 100 µM | [17] > 100 µM | [10] > 100 µM | [11] > 100 µM | [12] > 100 µM | [13] > 100 µM | [14] > 100 µM | [18] > 100 µM

COc1ccc(C(=O)O)c(Cc2ccc3ccccc3c2)c1
inactive: [15] > 100 µM | [1] > 100 µM | [2] > 100 µM | [3] > 100 µM | [16] > 100 µM | [4] > 100 µM | [5] > 100 µM | [7] > 100 µM | [9] > 100 µM | [17] > 100 µM | [10] > 100 µM | [11] > 100 µM | [12] > 100 µM | [13] > 100 µM | [14] > 100 µM | [18] > 100 µM

COc1ccc2c(c1)CC1c3c(ccc(OC)c3O)CC2N1C (stereo not given)
inactive: [15] 34.2 µM | [1] > 92.3 µM | [2] 40 µM | [3] 47.6 µM | [16] 43.6 µM | [4] 29.1 µM | [5] 54.5 µM | [7] 22.6 µM | [9] 29.4 µM | [17] 50.9 µM | [10] 22.8 µM | [11] 23.1 µM | [12] 51.5 µM | [13] 25.1 µM | [14] 24.7 µM | [18] 44.1 µM

CC1(C)OC2OC(/C=C/[N+](=O)[O-])C3OC(C)(C)OC3C2O1 (stereo not given)
inactive: [15] 8.47 µM | [1] 20.7 µM | [2] 4.67 µM | [3] 18.5 µM | [16] 18.7 µM | [4] 13.8 µM | [5] 23.2 µM | [7] 1.99 µM | [9] 16.3 µM | [17] 20.1 µM | [10] 19.5 µM | [11] 7.52 µM | [12] 15.4 µM | [13] 17.3 µM | [14] 13.6 µM | [18] 34.9 µM

N#CCCN(CCC#N)c1ccc(C(Sc2ccccc2)C(NC(=O)c2cc([N+](=O)[O-])ccc2Cl)C(=O)Sc2ccccc2)cc1 (stereo not given)
inactive: [15] 1.96 µM | [1] 3.24 µM | [2] 1.45 µM | [3] 3.54 µM | [16] 5.06 µM | [4] 1.89 µM | [5] 4.38 µM | [7] 2.09 µM | [9] 6.15 µM | [17] 1.34 µM | [10] 3.37 µM | [11] 8.07 µM | [12] 3.71 µM | [13] 1.23 µM | [14] 1.8 µM | [18] 1.92 µM

COC(=O)C1=C(C(=O)OC)C2(OC(C)=O)c3ccccc3-c3ccccc3C12 (stereo not given)
inactive: [15] 5.93 µM | [1] 20 µM | [2] 2.16 µM | [3] > 40.7 µM | [16] 11.5 µM | [4] 4.23 µM | [5] 14.2 µM | [7] 4.8 µM | [9] 2.47 µM | [17] 10.6 µM | [10] 17.9 µM | [11] 5.96 µM | [12] 2.54 µM | [13] 7.87 µM | [14] 17.2 µM | [18] 3.74 µM

O=C(O)CCC(=O)OCN1C(=O)C2C3C=CC(C2C1=O)C1C2C(=O)N(COC(=O)CCC(=O)O)C(=O)C2C31 (stereo not given)
inactive: [15] 56.9 µM | [1] > 100 µM | [2] > 100 µM | [3] > 100 µM | [16] > 100 µM | [4] > 62.7 µM | [5] > 100 µM | [7] > 100 µM | [9] > 100 µM | [17] > 100 µM | [10] > 100 µM | [11] > 100 µM | [12] > 67 µM | [13] > 65.8 µM | [14] > 100 µM | [18] > 100 µM

COc1ccc(Nc2nc3c(N)cc(C(F)(F)F)cc3nc2-c2ccccc2)cc1OC
inactive: [15] 15.1 µM | [1] 24.9 µM | [2] 22.6 µM | [3] 19.8 µM | [16] 32.9 µM | [4] 12.4 µM | [5] 64.7 µM | [7] 25.7 µM | [9] 11.9 µM | [17] 18.5 µM | [10] 19.7 µM | [11] 27.2 µM | [12] 12.8 µM | [13] 11.3 µM | [14] 18.2 µM | [18] 22.3 µM

Cc1cccc(C2=NC(C)(C)C(C)(C)N=C2c2cccc(C)n2)n1
inactive: [15] > 100 µM | [1] > 100 µM | [2] > 100 µM | [3] > 100 µM | [16] 30.1 µM | [4] > 100 µM | [5] > 100 µM | [7] > 100 µM | [9] > 100 µM | [17] > 100 µM | [10] > 100 µM | [11] 45.4 µM | [12] > 100 µM | [13] > 100 µM | [14] > 100 µM | [18] 38.5 µM

COC1=C(C(=O)OC(C)(C)C)C23CCCCC2(C(C(=O)OC(C)(C)C)=C(OC)C3C(=O)OC(C)(C)C)C1C(=O)OC(C)(C)C (stereo not given)
inactive: [15] 59.6 µM | [1] > 100 µM | [2] > 100 µM | [3] > 100 µM | [16] 21.5 µM | [4] > 100 µM | [5] > 100 µM | [7] 27.6 µM | [9] 9.12 µM | [17] 50.7 µM | [10] 4.78 µM | [11] 6.1 µM | [12] 20.1 µM | [13] 49.9 µM | [14] 48.3 µM | [18] 49.2 µM
